Measurements published in patent US20220340547A1, “INDOLE DERIVATIVE-CONTAINING INHIBITOR, PREPARATION METHOD THEREFOR AND APPLICATION THEREOF” (Shanghi Hansoh Biosoh Biomedical Co., Ltd., priority 2019, published 2022).
pIC50: −log10 of the molar value.

Key:
[1] = tested on: A431 cell line; assay: Proliferation of A431 cell line (CellTiter-Glo); assay type: cell-based; conditions: Homo sapiens, A-431, 72 h
Protocol: Test Example 3. Determination of the Inhibitory Effect of the Compound of the Present Invention on the Proliferation of Ba/F3 EGFR Mutant Cell Line and A431 Cell Line
(§1) Experimental objective: The objective of this test example is to determine the inhibitory effect of the compound on the proliferation of Ba/F3 EGFR mutant cell line and A431 cell line
(§2) Experimental instruments: Microplate reader (BioTek Synergy H1), pipette (Eppendorf & Rainin).
(§3) A431 cells were cultured, and harvested after reaching a suitable density. The cells were adjusted to an appropriate cell concentration with the complete medium. The cell suspension were spread on a 96-well plate (90 μL per well), and the plate was placed in a 37° C., 5% CO2 incubator overnight to let the cells adhere to the wall. Solutions of the compound at different concentrations were formulated with DMSO and culture medium. Solvent control was set. The solution of the compound was added to the 96-well plate (10 L per well), and the plate was incubated in the 37° C., 5% CO2 incubator for 72 h. CellTiter-Glo solution was added and mixed well by shaking, and the plate was incubated in the dark for 10 minutes. The values were measured by BioTek Synergy H1 microplate reader.
(§4) Experimental Data Processing Method:
(§5) The inhibition rate was calculated using the […] signal value. The concentration and inhibition rate were fitted to a nonlinear regression curve by Graphpad Prism software to obtain the IC50 value.

[2] = biological target: Ba/F3 EGFR-D770-N771ins_SVD (Homo sapiens, UniProt P00533, DUP768-770, cells depend on it); assay: Proliferation of Ba/F3 EGFR mutant cell line (CellTiter-Glo); assay type: cell-based, mouse; conditions: 72 h to 144 h, read-out: Ba/F3 EGFR-D770-N771ins_SVD IC50
Ba/F3 EGFR-D770-N771ins_SVD, sequence (P00533 with tags, fused parts or gaps DUP768-770): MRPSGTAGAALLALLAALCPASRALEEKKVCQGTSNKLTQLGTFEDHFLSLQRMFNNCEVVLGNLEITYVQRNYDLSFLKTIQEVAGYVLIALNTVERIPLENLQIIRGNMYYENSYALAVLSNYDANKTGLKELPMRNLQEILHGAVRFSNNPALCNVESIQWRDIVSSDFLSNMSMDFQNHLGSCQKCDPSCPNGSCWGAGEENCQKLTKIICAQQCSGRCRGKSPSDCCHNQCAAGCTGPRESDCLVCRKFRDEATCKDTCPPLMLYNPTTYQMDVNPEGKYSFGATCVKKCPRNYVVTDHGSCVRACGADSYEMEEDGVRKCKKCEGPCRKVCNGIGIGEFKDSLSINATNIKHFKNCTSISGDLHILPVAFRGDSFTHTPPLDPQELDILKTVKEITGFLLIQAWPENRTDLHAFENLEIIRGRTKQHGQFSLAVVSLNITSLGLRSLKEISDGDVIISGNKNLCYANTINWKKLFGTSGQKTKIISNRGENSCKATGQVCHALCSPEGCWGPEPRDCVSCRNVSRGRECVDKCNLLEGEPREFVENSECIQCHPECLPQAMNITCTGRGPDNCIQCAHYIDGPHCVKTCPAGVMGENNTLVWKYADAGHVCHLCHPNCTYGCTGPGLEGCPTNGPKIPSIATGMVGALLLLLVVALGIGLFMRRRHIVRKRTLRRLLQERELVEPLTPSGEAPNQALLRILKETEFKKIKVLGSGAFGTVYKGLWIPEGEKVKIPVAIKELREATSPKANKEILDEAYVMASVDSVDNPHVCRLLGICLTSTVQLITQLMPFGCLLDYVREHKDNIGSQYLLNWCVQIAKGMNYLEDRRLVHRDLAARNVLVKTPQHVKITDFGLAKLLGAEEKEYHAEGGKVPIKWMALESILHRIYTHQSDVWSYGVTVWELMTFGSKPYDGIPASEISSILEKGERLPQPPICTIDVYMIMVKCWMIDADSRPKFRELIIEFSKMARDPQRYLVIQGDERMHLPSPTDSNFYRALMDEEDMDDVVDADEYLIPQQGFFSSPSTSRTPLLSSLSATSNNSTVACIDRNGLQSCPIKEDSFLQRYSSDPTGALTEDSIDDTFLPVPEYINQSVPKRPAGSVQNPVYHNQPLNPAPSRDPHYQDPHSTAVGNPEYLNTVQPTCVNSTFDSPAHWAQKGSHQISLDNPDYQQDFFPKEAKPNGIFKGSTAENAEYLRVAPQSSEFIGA
Protocol: Determination of the Inhibitory Effect of the Compound of the Present Invention on the Proliferation of Ba/F3 EGFR Mutant Cell Line and A431 Cell Line
as §1, §2
as §3, with “Ba/F3 EGFR mutant” for “A431”, “The solution of the compound was added to the 96-well plate (10 L per well), and the plate was incubated in the 37° C., 5% CO2 incubator for 72 h.” left out
as §4, §5

[3] = biological target: EGFR D770_N771insNPG (Homo sapiens, UniProt P00533, INS770NPG); assay: TR-FRET inhibition of kinase activity of EGFR exon 20 insertion mutation; assay type: biochemical
EGFR D770_N771insNPG, sequence (P00533 with tags, fused parts or gaps INS770NPG limits assumed): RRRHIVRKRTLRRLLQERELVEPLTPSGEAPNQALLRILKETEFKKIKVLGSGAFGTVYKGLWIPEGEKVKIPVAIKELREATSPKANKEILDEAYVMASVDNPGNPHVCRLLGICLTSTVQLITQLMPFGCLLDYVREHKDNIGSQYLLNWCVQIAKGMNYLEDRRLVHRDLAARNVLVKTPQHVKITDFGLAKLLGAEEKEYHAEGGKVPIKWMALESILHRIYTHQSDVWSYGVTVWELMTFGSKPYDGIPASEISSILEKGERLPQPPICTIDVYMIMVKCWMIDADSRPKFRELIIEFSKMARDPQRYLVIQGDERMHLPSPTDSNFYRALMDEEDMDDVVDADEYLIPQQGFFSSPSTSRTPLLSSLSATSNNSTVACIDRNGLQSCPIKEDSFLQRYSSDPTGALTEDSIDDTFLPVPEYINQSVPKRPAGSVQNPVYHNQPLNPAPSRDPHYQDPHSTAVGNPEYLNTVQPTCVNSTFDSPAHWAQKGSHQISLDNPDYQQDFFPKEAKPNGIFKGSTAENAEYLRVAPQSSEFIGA
Description: Determination of the Inhibitory Effect of the Compound of the Present Invention on the Kinase Activity of EGFR Exon 20 Insertion Mutation
Experimental objective: The objective of this test example is to determine the inhibitory effect of the compound on the kinase activity of EGFR exon 20 insertion mutation.
Experimental process: The experiment applied the TR-FRET (time-resolved fluorescence resonance energy transfer) method to study the inhibitory effect of the compound on the kinase activity of EGFR exon 20 insertion mutation. The experiment was carried out in a 384-well plate. Experimental buffer (50 mM HEPES, 1 mM EGTA, 10 mM MgCl2, 2 mM DTT, 0.01% Tween-20) was formulated. The compound was diluted in gradient to different concentrations with the experimental buffer. 2.5 μL of the solution was added to each well of the 384-well plate. 2.5 μL of diluted EGFR kinase solution (0.001-0.5 nM) was added, and the plate was incubated at room temperature for 10 minutes. 5 μL of ULight-poly GT/ATP mixed solution was added, and the plate was incubated at room temperature for 30 to 60 minutes. 5 μL of EDTA stop solution and 5 μL of Eu-labeled antibody detection solution were added, and the plate was incubated at room temperature for 1 hour.
as §4
The concentration and inhibition rate were fitted to a nonlinear regression curve by Graphpad Prism software to obtain the IC50 value.

pIC50 [1]	GI50 [2] [nM]	pIC50 [3]	SMILES
6.27	76		CC#CC(=O)Nc1cc(Nc2ncc(C(=O)OC(C)C)c(-c3cn(C)c4ccccc34)n2)c(OC)cc1N(C)CC1CCCN1C (stereo not shown) [Example 1, Isopropyl 2-((5-(but-2-ynamido)-2-methoxy-4-(methyl((1-methylpyrrolidin-2-yl)methyl)amino)phenyl)amino)-4-(1-methyl-1H-indol-3-yl)pyrimidine-5-carboxylate]
6.91	15		C=CC(=O)Nc1cc(Nc2ncc(C(=O)OC(C)C)c(-c3cn(C)c4ccccc34)n2)c(OC)cc1N1C[C@H]2CN(C)C[C@H]2C1 [Example 24, Isopropyl 2-((5-acrylamido-2-methoxy-4-(5-methylhexahydropyrrolo[3,4-c]pyrrol-2(1H)-yl)phenyl)amino)-4-(1-methyl-1H-indol-3-yl)pyrimidine-5-carboxylate]
		9.44	C=CC(=O)Nc1cc(Nc2ncc(C(=O)OC(C)C)c(-c3cn(C)c4ccccc34)n2)c(OC)cc1N1CC2(CN(C)C2)C1 [Example 26, Isopropyl 2-((5-acrylamido-2-methoxy-4-(6-methyl-2,6-diazaspiro[3.3]heptan-2-yl)phenyl)amino)-4-(1-methyl-1H-indol-3-yl)pyrimidine-5-carboxylate]
	21	9.54	C=CC(=O)Nc1cc(Nc2ncc(-c3cnn(C)c3)c(-c3cn(C4CC4)c4ccccc34)n2)c(OC)cc1N1C[C@H]2CN(C)C[C@H]2C1 [Example 43, N-(5-((4-(1-Cyclopropyl-1H-indol-3-yl)-5-(1-methyl-1H-pyrazol-4-yl)pyrimidin-2-yl)amino)-4-methoxy-2-((3aR,6aS)-5-methylhexahydropyrrolo[3,4-c]pyrrol-2(1H)-yl)phenyl)acrylamide]
		9.21	C=CC(=O)Nc1cc(Nc2ncc(C(=O)OC(C)C)c(-c3cn(C)c4ccccc34)n2)c(OC)cc1N1C[C@H]2CN(C)C[C@H]2C1 [Example 63, Isopropyl 2-((5-acrylamido-2-methoxy-4-((3aR,6aS)-5-methylhexahydropyrrolo[3,4-c]pyrrol-2(1H)-yl)phenyl)amino)-4-(1-methyl-1H-indol-3-yl)pyrimidine-5-carboxylate]
	15.1	9.54	C=CC(=O)Nc1cc(Nc2ncc(-c3cnn(C)c3)c(-c3cn(C4CC4)c4ccccc34)n2)c(OC)cc1N1C[C@@H]2CCN(C)[C@@H]2C1 [Example 65, N-(5-((4-(1-Cyclopropyl-1H-indol-3-yl)-5-(1-methyl-1H-pyrazol-4-yl)pyrimidin-2-yl)amino)-4-methoxy-2-((3aS,6aS)-1-methylhexahydropyrrolo[3,4-b]pyrrol-5(1H)-yl)phenyl)acrylamide]
	15.4	9.77	C=CC(=O)Nc1cc(Nc2ncc(-c3cnn(C)c3)c(-c3cn(C4CC4)c4ccccc34)n2)c(OC)cc1N1C[C@H]2CCN(C)[C@H]2C1 [Example 68]
	47.4		C=CC(=O)Nc1cc(Nc2ncc(-c3ccnn3C)c(-c3cn(C4CC4)c4ccccc34)n2)c(OC)cc1N1C[C@H]2CN(C)C[C@H]2C1 [Example 70, N-(5-((4-(1-Cyclopropyl-1H-indol-3-yl)-5-(1-methyl-1H-pyrazol-5-yl)pyrimidin-2-yl)amino)-4-methoxy-2-((3aR,6aS)-5-methylhexahydropyrrolo[3,4-c]pyrrol-2(1H)-yl)phenyl)acrylamide]
		9.19	C=CC(=O)Nc1cc(Nc2ncc(C#N)c(-c3cn(C4CC4)c4ccccc34)n2)c(OC)cc1N1CC(N(C)C)C1 [Example 74, N-(5-((5-Cyano-4-(1-cyclopropyl-1H-indol-3-yl)pyrimidin-2-yl)amino)-2-(3-(dimethylamino)azetidin-1-yl)-4-methoxyphenyl)acrylamide]
		9.04	C=CC(=O)Nc1cc(Nc2ncc(C#N)c(-c3cn(C4CC4)c4ccccc34)n2)c(OC)cc1N1CC[C@H](N(C)C)C1 [Example 77, (S)—N-(5-((5-cyano-4-(1-cyclopropyl-1H-indol-3-yl)pyrimidin-2-yl)amino)-2-(3-(dimethylamino)pyrrolidin-1-yl)-4-methoxyphenyl)acrylamide]
		9.28	C=CC(=O)Nc1cc(Nc2ncc(C#N)c(-c3cn(C4CC4)c4ccccc34)n2)c(OC)cc1N1C[C@@H]2CCN(C)[C@@H]2C1 [Example 110, N-(5-((5-Cyano-4-(1-cyclopropyl-1H-indol-3-yl)pyrimidin-2-yl)amino)-4-methoxy-2-((3aS,6aS)-1-methylhexahydropyrrolo[3,4-b]pyrrol-5(1H)-yl)phenyl)acrylamide]

Further lines, the molecule ahead of its results:

SMILES	pIC50 [1]	GI50 [2] [nM]	pIC50 [3]
C=CC(=O)Nc1cc(Nc2ncc(-c3ccc(F)cc3F)c(-c3cn(C4CC4)c4ccccc34)n2)c(OC)cc1N1C[C@H]2CN(C)C[C@H]2C1 [Example 69, N-(5-((4-(1-Cyclopropyl-1H-indol-3-yl)-5-(2,4-difluorophenyl)pyrimidin-2-yl)amino)-4-methoxy-2-((3aR,6aS)-5-methylhexahydropyrrolo[3,4-c]pyrrol-2(1H)-yl)phenyl)acrylamide]		40	
C=CC(=O)Nc1cc(Nc2ncc(-c3cnn(C)c3)c(-c3cn(C4CC4)c4ccccc34)n2)c(OC)cc1N(C)CCN(C)C [Example 85, N-(5-((4-(1-Cyclopropyl-1H-indol-3-yl)-5-(1-methyl-1H-pyrazol-4-yl)pyrimidin-2-yl)amino)-2-((2-(dimethylamino)ethyl)(methyl)amino)-4-methoxyphenyl)acrylamide]		17.4	9.57
C=CC(=O)Nc1cc(Nc2ncc(C#N)c(-c3cn(C4CC4)c4cc(OC)ccc34)n2)c(OC)cc1N(C)CCN(C)C [Example 112, N-(5-((5-Cyano-4-(1-cyclopropyl-6-methoxy-1H-indol-3-yl)pyrimidin-2-yl)amino)-2-((2-(dimethylamino)ethyl)(methyl)amino)-4-methoxyphenyl)acrylamide]		26.7	9.77
C=CC(=O)Nc1cc(Nc2ncc(C#N)c(-c3cn(C4CC4)c4ccccc34)n2)c(OC)cc1OCCN(C)C [Example 113, N-(5-((5-Cyano-4-(1-cyclopropyl-1H-indol-3-yl)pyrimidin-2-yl)amino)-2-(2-(dimethylamino)ethoxy)-4-methoxyphenyl)acrylamide]			9.15
C=CC(=O)Nc1cc(Nc2ncc(C#N)c(-c3cn(C4CC4)c4cc(F)ccc34)n2)c(OC)cc1N(C)CCN(C)C [Example 114, N-(5-((5-Cyano-4-(1-cyclopropyl-6-fluoro-1H-indol-3-yl)pyrimidin-2-yl)amino)-2-((2-(dimethylamino)ethyl)(methyl)amino)-4-methoxyphenyl)acrylamide]		42.5	9.21
C=CC(=O)Nc1cc(Nc2ncc(C#N)c(-c3cn(C4CC4)c4c(OC)cccc34)n2)c(OC)cc1N(C)CCN(C)C [Example 119, N-(5-((5-Cyano-4-(1-cyclopropyl-7-methoxy-1H-indol-3-yl)pyrimidin-2-yl)amino)-2-((2-(dimethylamino)ethyl)(methyl)amino)-4-methoxyphenyl)acrylamide]		45.4	9.31
C=CC(=O)Nc1cc(Nc2ncc(C#N)c(-c3cn(C4CC4)c4ncccc34)n2)c(OC)cc1N(C)CCN(C)C [Example 139, N-(5-((5-Cyano-4-(1-cyclopropyl-1H-pyrrolo[2,3-b]pyridin-3-yl)pyrimidin-2-yl)amino)-2-((2-(dimethylamino)ethyl)(methyl)amino)-4-methoxyphenyl)acrylamide]			9.17
